{"source": "ChEMBL document CHEMBL5550095", "about": "(Bioorg Med Chem, 2024)", "key": {"[1]": {"assay": "Inhibition of Plasmodium falciparum PYK-1"}, "[2]": {"assay": "Selectivity index, ratio of CC50 for human HepG2 cells to EC50 for Plasmodium falciparum K1", "format": "toxicity", "conditions": "read-out: Ratio CC50/EC50"}, "Plasmodium falciparum": {"system": "Plasmodium falciparum", "assay": "Antiplasmodial activity against Plasmodium falciparum K1 infected in erythrocytes assessed as reduction in parasite DNA after 72 hrs by SYBR Green I fluorescence based assay", "format": "functional, organism-based", "conditions": "K1, Erythrocyte"}, "[3]": {"assay": "Cytotoxicity against human HepG2 cells incubated for 72 hrs by MTT assay", "format": "toxicity, cell-based"}, "[4]": {"assay": "Lipophilicity, logD of the compound at pH 7.4", "format": "physicochemical", "conditions": "buffer"}, "[5]": {"assay": "Half-life in mouse plasma", "format": "ADME, cell-free"}, "[6]": {"assay": "Half-life in mouse liver microsomes", "format": "ADME, Microsome"}, "[7]": {"biological_target": "Bifunctional dihydrofolate reductase-thymidylate synthase (Plasmodium falciparum K1) (UniProt P13922)", "sequence (P13922 whole entry, looked up)": "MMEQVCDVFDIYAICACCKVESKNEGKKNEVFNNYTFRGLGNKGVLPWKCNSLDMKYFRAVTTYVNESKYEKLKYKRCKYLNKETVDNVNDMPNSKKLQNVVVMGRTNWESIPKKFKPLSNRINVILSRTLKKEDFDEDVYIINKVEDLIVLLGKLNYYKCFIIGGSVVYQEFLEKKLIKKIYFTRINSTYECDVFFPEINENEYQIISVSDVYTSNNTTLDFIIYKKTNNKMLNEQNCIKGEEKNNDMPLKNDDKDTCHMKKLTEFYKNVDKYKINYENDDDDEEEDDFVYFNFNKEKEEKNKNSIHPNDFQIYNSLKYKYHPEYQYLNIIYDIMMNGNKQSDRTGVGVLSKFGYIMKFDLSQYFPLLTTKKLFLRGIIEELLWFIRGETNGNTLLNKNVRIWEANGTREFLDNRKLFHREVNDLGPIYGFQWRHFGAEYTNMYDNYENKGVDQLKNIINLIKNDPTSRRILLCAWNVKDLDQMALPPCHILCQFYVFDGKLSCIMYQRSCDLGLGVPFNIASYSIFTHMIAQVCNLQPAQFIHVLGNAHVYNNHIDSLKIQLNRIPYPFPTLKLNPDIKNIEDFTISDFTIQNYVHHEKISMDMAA", "assay": "Inhibition of Plasmodium falciparum DHFR"}}, "note": "Activity calls are given as the source filed them. The rule behind the calls is not given here.", "data": [{"smiles": "O=C(O)C(=O)O", "note": "[OXALIC ACID]", "values": [{"measurement": "IC50", "setting": "[1]", "value": 150, "unit": "µM"}]}, {"smiles": "C[C@H]1c2cccc(O)c2C(=O)C2=C(O)[C@]3(O)C(=O)C(C(N)=O)=C(O)[C@@H](N(C)C)[C@@H]3[C@@H](O)[C@@H]21", "note": "[DOXYCYCLINE ANHYDROUS]", "values": [{"measurement": "selectivity ratio", "setting": "[2]", "value": 4}, {"measurement": "EC50", "setting": "Plasmodium falciparum", "value": 5, "unit": "µM"}]}, {"smiles": "CC(C)(C)OC(=O)NCCCOCCOCCOCCCNCc1ccc2c(Nc3ccc(Cl)cc3Cl)nc(C(Cl)(Cl)Cl)nc2c1", "values": [{"measurement": "selectivity ratio", "setting": "[2]", "value": 21}, {"measurement": "EC50", "setting": "Plasmodium falciparum", "value": 0.15, "unit": "µM"}, {"measurement": "CC50 at 72 h", "setting": "[3]", "value": 3.1, "unit": "µM"}]}, {"smiles": "CC(C)(C)OC(=O)NCCOCCOCCNCc1ccc2c(Nc3ccc(Cl)cc3Cl)nc(C(Cl)(Cl)Cl)nc2c1", "values": [{"measurement": "selectivity ratio", "setting": "[2]", "value": 32}, {"measurement": "EC50", "setting": "Plasmodium falciparum", "value": 0.6, "unit": "µM"}, {"measurement": "CC50 at 72 h", "setting": "[3]", "value": 19, "unit": "µM"}]}, {"smiles": "C[C@H]1[C@H](OC(=O)CCC(=O)O)O[C@@H]2O[C@@]3(C)CC[C@H]4[C@H](C)CC[C@@H]1[C@@]24OO3", "note": "[ARTESUNATE]", "values": [{"measurement": "EC50", "setting": "Plasmodium falciparum", "value": 0.004, "unit": "µM"}]}, {"smiles": "CCN(CC)CCCC(C)Nc1ccnc2cc(Cl)ccc12", "note": "(configuration not stated) [CHLOROQUINE]", "values": [{"measurement": "selectivity ratio", "setting": "[2]", "value": 60}, {"measurement": "EC50", "setting": "Plasmodium falciparum", "value": 0.5, "unit": "µM"}]}, {"smiles": "Clc1ccc(Nc2nc(C(Cl)(Cl)Cl)nc3ccccc23)c(Cl)c1", "values": [{"measurement": "logD", "setting": "[4]", "value": 3.6}, {"measurement": "half-life", "setting": "[5]", "value": "> 360", "unit": "min"}, {"measurement": "half-life", "setting": "[6]", "value": 18, "unit": "min"}, {"measurement": "inhibition", "setting": "[7]", "value": "Active"}]}, {"smiles": "Cc1ccc(C(=O)Nc2ccc(S(=O)(=O)O)c3cc(S(=O)(=O)O)cc(S(=O)(=O)O)c23)cc1NC(=O)c1cccc(NC(=O)Nc2cccc(C(=O)Nc3cc(C(=O)Nc4ccc(S(=O)(=O)O)c5cc(S(=O)(=O)O)cc(S(=O)(=O)O)c45)ccc3C)c2)c1", "note": "[SURAMIN]", "values": [{"measurement": "IC50", "setting": "[1]", "value": 128, "unit": "µM"}]}]}
